Test results reported in ChEMBL document CHEMBL4813962, “Design, synthesis and biological evaluation of sulfamoylphenyl-quinazoline derivatives as potential EGFR/CAIX dual inhibitors” (Eur J Med Chem, 2021).

How the values were obtained:
A-431 = assay: cells; type: functional, cell-based; settings: Homo sapiens, A-431, 72 h
Description: Antiproliferative activity against human A-431 cells assessed as reduction in cell viability incubated for 72 hrs by MTT assay

NCI-H1975 = assay: Antiproliferative activity against human NCI-H1975 cells assessed as reduction in cell viability incubated for 72 hrs by MTT assay; type: functional, cell-based; settings: NCI-H1975, 72 h
A549 = assay: cells; type: functional, cell-based; settings: Homo sapiens, A549, 72 h;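 note: antiproliferative effect read out as loss of cell viability by MTT assay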
[1] = target: Epidermal growth factor receptor (Homo sapiens, UniProt P00533, T790M)
Sequence of Epidermal growth factor receptor (Homo sapiens, UniProt P00533, T790M) (P00533 25-1210 T790M limits assumed): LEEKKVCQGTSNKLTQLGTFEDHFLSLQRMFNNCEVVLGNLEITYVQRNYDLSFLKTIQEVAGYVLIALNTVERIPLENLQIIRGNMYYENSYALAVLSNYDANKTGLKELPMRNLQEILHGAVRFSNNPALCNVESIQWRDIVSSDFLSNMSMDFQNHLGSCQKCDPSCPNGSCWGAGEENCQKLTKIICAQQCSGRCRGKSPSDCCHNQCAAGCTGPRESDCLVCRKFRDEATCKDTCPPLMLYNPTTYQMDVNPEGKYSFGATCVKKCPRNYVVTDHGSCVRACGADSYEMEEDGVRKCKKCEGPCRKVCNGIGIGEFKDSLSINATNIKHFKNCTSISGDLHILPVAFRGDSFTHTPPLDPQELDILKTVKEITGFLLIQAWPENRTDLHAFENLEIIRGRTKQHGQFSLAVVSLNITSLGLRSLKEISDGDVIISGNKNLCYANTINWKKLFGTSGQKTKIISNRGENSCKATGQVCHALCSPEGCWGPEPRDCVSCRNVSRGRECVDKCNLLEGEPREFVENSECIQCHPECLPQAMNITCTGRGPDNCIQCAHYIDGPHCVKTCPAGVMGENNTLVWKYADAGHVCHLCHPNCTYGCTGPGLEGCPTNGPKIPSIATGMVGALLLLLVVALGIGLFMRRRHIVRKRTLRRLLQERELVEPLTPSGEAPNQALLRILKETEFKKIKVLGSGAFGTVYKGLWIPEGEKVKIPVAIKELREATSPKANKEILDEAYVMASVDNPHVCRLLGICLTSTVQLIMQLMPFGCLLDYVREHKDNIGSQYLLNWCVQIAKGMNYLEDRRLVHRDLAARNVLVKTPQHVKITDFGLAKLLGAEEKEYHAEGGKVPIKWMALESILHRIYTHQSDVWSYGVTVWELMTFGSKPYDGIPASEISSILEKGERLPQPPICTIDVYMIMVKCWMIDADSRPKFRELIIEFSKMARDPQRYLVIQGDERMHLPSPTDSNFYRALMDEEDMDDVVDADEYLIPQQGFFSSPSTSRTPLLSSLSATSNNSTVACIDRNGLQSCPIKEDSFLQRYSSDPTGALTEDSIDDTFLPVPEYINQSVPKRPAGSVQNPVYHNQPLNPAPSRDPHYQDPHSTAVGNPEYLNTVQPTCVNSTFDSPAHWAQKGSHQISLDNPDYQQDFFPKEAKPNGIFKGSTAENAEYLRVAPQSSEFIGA

[2] = target: Epidermal growth factor receptor (Homo sapiens, UniProt P00533)
Sequence of Epidermal growth factor receptor (Homo sapiens, UniProt P00533) (P00533 whole entry): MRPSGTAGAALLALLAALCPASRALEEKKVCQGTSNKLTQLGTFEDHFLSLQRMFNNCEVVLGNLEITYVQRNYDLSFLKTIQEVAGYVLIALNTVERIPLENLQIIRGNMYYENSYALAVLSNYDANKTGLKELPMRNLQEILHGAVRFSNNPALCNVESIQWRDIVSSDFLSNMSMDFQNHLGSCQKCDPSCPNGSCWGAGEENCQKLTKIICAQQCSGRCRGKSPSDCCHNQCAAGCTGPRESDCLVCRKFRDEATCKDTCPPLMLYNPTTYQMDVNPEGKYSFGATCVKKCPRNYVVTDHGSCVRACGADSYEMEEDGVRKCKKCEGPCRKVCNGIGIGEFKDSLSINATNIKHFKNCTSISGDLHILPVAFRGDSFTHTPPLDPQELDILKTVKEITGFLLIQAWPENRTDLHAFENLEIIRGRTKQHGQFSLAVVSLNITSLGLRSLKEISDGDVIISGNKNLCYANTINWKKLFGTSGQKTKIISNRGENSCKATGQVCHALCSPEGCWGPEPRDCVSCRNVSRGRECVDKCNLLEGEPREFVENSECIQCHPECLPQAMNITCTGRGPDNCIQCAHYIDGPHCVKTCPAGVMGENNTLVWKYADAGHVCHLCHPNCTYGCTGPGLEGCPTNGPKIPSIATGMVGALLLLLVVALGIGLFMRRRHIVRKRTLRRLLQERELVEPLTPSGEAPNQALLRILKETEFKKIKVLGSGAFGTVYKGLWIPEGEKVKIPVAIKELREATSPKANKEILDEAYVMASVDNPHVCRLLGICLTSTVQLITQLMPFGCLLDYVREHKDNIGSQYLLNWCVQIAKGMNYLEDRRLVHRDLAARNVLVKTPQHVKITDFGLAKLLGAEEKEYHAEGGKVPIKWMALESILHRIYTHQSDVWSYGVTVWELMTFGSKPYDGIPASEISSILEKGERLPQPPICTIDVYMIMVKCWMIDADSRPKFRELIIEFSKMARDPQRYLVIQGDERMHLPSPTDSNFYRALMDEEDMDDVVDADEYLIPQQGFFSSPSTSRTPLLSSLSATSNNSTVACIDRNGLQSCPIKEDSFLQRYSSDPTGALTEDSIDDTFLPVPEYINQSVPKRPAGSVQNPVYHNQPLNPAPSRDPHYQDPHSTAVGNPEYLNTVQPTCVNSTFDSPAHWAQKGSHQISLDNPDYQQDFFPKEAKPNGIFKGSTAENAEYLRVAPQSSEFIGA
Description: Inhibition of recombinant human N-terminal GST-tagged EGFR (669 to 1210 residues) expressed in baculovirus expression system using peptide as substrate incubated for 2 hrs followed by substrate addition and measured after 30 mins by TR-FRET assay

Carbonic anhydrase 9 = Carbonic anhydrase 9 (Homo sapiens, UniProt Q16790)
Description: Inhibition of human carbonic anhydrase 9 using p-nitrophenyl acetate as substrate by UV-VIS spectrophotometric analysis

Carbonic anhydrase 2 = Carbonic anhydrase 2 (Homo sapiens, UniProt P00918); assay: Inhibition of human carbonic anhydrase 2 using p-nitrophenyl acetate as substrate by UV-VIS spectrophotometric analysis

Row | SMILES | IC50 (A-431) | IC50 (NCI-H1975) | IC50 (A549) | IC50 [1] | IC50 [2] | IC50 (Carbonic anhydrase 9) | IC50 (Carbonic anhydrase 2)
1 | NS(=O)(=O)c1ccc(NC(=S)Nc2ccc3ncnc(Nc4ccc(Cl)c(C(F)(F)F)c4)c3c2)cc1 | 18.2 µM | 11.8 µM | 4.5 µM | – | – | – | –
2 | NS(=O)(=O)c1ccc(CCNC(=S)Nc2ccc3ncnc(Nc4cccc(F)c4)c3c2)cc1 | 9.94 µM | 35.7 µM | 5.51 µM | – | – | – | –
3 | Cc1cccc(Nc2ncnc3ccc(NC(=S)Nc4ccc(S(N)(=O)=O)cc4)cc23)c1 | 23.8 µM | 35.4 µM | > 40 µM | – | – | – | –
4 | COc1cc2ncnc(Nc3cc(F)c(F)c(F)c3)c2cc1OCCCCC(=O)Nc1ccc(S(N)(=O)=O)cc1 | 23.4 µM | 20 µM | > 40 µM | – | – | – | –
5 | COc1cc2ncnc(Nc3ccc(C)cc3)c2cc1OCCCCC(=O)Nc1ccc(S(N)(=O)=O)cc1 | 35.5 µM | 19.2 µM | > 40 µM | – | – | – | –
6 | COc1cc2ncnc(Nc3ccc(C(F)(F)F)cc3)c2cc1OCCCCC(=O)Nc1ccc(S(N)(=O)=O)cc1 | 16.9 µM | 12 µM | 14.8 µM | – | – | – | –
7 | COc1cc2ncnc(Nc3ccc(F)c(Cl)c3)c2cc1OCCCCC(=O)Nc1ccc(S(N)(=O)=O)cc1 | 5.02 µM | 35.6 µM | 15.5 µM | 61.9 nM | 18.3 nM | – | –
8 | C#Cc1cccc(Nc2ncnc3cc(OC)c(OCCCCC(=O)Nc4ccc(S(N)(=O)=O)cc4)cc23)c1 | 17.7 µM | 18.8 µM | 7.72 µM | 48.5 nM | 49.2 nM | – | –
9 | C#Cc1cccc(Nc2ncnc3ccc(NC(=S)Nc4ccc(S(N)(=O)=O)cc4)cc23)c1 | 15.3 µM | 13.4 µM | > 40 µM | – | – | – | –
10 | COc1cc2ncnc(Nc3ccc(F)c(Br)c3)c2cc1OCCCCC(=O)Nc1ccc(S(N)(=O)=O)cc1 | 8.02 µM | 31.6 µM | 16 µM | – | – | – | –
11 | COc1cc2ncnc(Nc3ccc(OCc4cccc(F)c4)c(Cl)c3)c2cc1OCCCCC(=O)Nc1ccc(S(N)(=O)=O)cc1 | 7.79 µM | 5.67 µM | 7.86 µM | 22.8 nM | 16.5 nM | – | –
12 | NS(=O)(=O)c1ccc(CCNC(=S)Nc2ccc3ncnc(Nc4ccc(F)c(Cl)c4)c3c2)cc1 | 16.7 µM | 11.4 µM | 4.18 µM | – | – | – | –
13 | NS(=O)(=O)c1ccc(CCNC(=S)Nc2ccc3ncnc(Nc4cccc(Br)c4)c3c2)cc1 | 17.3 µM | 10.8 µM | 9.36 µM | – | – | – | –
14 | COc1ccccc1Nc1ncnc2cc(OC)c(OCCCCC(=O)Nc3ccc(S(N)(=O)=O)cc3)cc12 | 24.2 µM | 8.03 µM | 24.1 µM | – | – | – | –
15 | NS(=O)(=O)c1ccc(NC(=S)Nc2ccc3ncnc(Nc4ccc(C(F)(F)F)cc4)c3c2)cc1 | 18 µM | 17.1 µM | > 40 µM | – | – | – | –
16 | COc1cc2ncnc(Nc3cccc(Cl)c3F)c2cc1OCCCCC(=O)Nc1ccc(S(N)(=O)=O)cc1 | 5.56 µM | 6.93 µM | 10.5 µM | 18 nM | 34.8 nM | – | –
17 | NS(=O)(=O)c1ccc(NC(=S)Nc2ccc3ncnc(Nc4cccc(Br)c4)c3c2)cc1 | 20.7 µM | 11 µM | 25 µM | – | – | – | –
18 | Cc1ccc(Nc2ncnc3ccc(NC(=S)Nc4ccc(S(N)(=O)=O)cc4)cc23)cc1 | 40 µM | 39.4 µM | 2.84 µM | – | – | – | –
19 | COc1cc2ncnc(Nc3cccc(C)c3)c2cc1OCCCCC(=O)Nc1ccc(S(N)(=O)=O)cc1 | 7.46 µM | 32.1 µM | 16 µM | – | – | – | –
20 | NS(=O)(=O)c1ccc(CCNC(=S)Nc2ccc3ncnc(Nc4cccc(Cl)c4F)c3c2)cc1 | 4.21 µM | 13 µM | 4.53 µM | – | – | – | –
21 | NS(=O)(=O)c1ccc(NC(=S)Nc2ccc3ncnc(Nc4cccc(Cl)c4)c3c2)cc1 | 15 µM | 39.8 µM | > 40 µM | – | – | – | –
22 | NS(=O)(=O)c1ccc(NC(=S)Nc2ccc3ncnc(Nc4ccc(OCc5cccc(F)c5)c(Cl)c4)c3c2)cc1 | 29.5 µM | 10.3 µM | > 40 µM | – | – | – | –
23 | NS(=O)(=O)c1ccc(CCNC(=S)Nc2ccc3ncnc(Nc4ccc(C(F)(F)F)cc4)c3c2)cc1 | 26.7 µM | 13 µM | 32.4 µM | – | – | – | –
24 | COc1ccc(Nc2ncnc3cc(OC)c(OCCCCC(=O)Nc4ccc(S(N)(=O)=O)cc4)cc23)cc1 | 14.7 µM | 30.2 µM | > 40 µM | – | – | – | –
25 | CCc1ccc(Nc2ncnc3cc(OC)c(OCCCCC(=O)Nc4ccc(S(N)(=O)=O)cc4)cc23)cc1 | 7.22 µM | 10.3 µM | 12.1 µM | – | – | – | –
26 | NS(=O)(=O)c1ccc(CCNC(=S)Nc2ccc3ncnc(Nc4ccc(Cl)c(C(F)(F)F)c4)c3c2)cc1 | 21.2 µM | 39.5 µM | 30.4 µM | – | – | – | –

Row | SMILES | IC50 (A-431) | IC50 (NCI-H1975) | IC50 (A549) | IC50 [1] | IC50 [2] | IC50 (Carbonic anhydrase 9) | IC50 (Carbonic anhydrase 2)
27 | COc1cc2ncnc(Nc3ccc(Br)cc3)c2cc1OCCCCC(=O)Nc1ccc(S(N)(=O)=O)cc1 | 6.57 µM | 23.3 µM | > 40 µM | – | – | – | –
28 | COc1cc2ncnc(Nc3cccc(F)c3)c2cc1OCCCCC(=O)Nc1ccc(S(N)(=O)=O)cc1 | 29.9 µM | > 40 µM | > 40 µM | – | – | – | –
29 | NS(=O)(=O)c1ccc(NC(=S)Nc2ccc3ncnc(Nc4ccc(F)c(Cl)c4)c3c2)cc1 | 37.6 µM | 15.8 µM | > 40 µM | – | – | – | –
30 | CCc1ccc(Nc2ncnc3ccc(NC(=S)Nc4ccc(S(N)(=O)=O)cc4)cc23)cc1 | 38.4 µM | 38.7 µM | 24.6 µM | – | – | – | –
31 | NS(=O)(=O)c1ccc(CCNC(=S)Nc2ccc3ncnc(Nc4cccc(Cl)c4)c3c2)cc1 | 14.8 µM | 11 µM | 2.77 µM | – | – | – | –
32 | Cc1cccc(Nc2ncnc3ccc(NC(=S)NCCc4ccc(S(N)(=O)=O)cc4)cc23)c1 | 16 µM | 20.8 µM | 7.05 µM | – | – | – | –
33 | COc1cc2ncnc(Nc3ccc(Cl)c(C(F)(F)F)c3)c2cc1OCCCCC(=O)Nc1ccc(S(N)(=O)=O)cc1 | 3.91 µM | 3.22 µM | 9.27 µM | 37.5 nM | 13.7 nM | 224 nM | 356 nM
34 | COc1cc2ncnc(Nc3cccc(Cl)c3)c2cc1OCCCCC(=O)Nc1ccc(S(N)(=O)=O)cc1 | 30.4 µM | 33.2 µM | 11.2 µM | – | – | – | –
35 | NS(=O)(=O)c1ccc(CCNC(=S)Nc2ccc3ncnc(Nc4cccc(C(F)(F)F)c4)c3c2)cc1 | 16.8 µM | 4.25 µM | 9.05 µM | 93.4 nM | 42.6 nM | 313 nM | 241 nM
36 | COc1cc2ncnc(Nc3ccccc3)c2cc1OCCCCC(=O)Nc1ccc(S(N)(=O)=O)cc1 | 25.2 µM | 14.1 µM | > 40 µM | – | – | – | –
37 | NS(=O)(=O)c1ccc(CCNC(=S)Nc2ccc3ncnc(Nc4ccc(OCc5cccc(F)c5)c(Cl)c4)c3c2)cc1 | 5.77 µM | 5.16 µM | 6.63 µM | 66.7 nM | 28.4 nM | – | –
38 | NS(=O)(=O)c1ccc(NC(=S)Nc2ccc3ncnc(Nc4ccc(F)c(Br)c4)c3c2)cc1 | 18.2 µM | 9.98 µM | > 40 µM | – | – | – | –
39 | COc1ccc(Nc2ncnc3cc(OC)c(OCCCCC(=O)Nc4ccc(S(N)(=O)=O)cc4)cc23)cc1OC | 35.4 µM | 9.23 µM | > 40 µM | – | – | – | –
40 | C#Cc1cccc(Nc2ncnc3ccc(NC(=S)NCCc4ccc(S(N)(=O)=O)cc4)cc23)c1 | 12.5 µM | 12.7 µM | 3.87 µM | – | – | – | –
41 | COc1cc2ncnc(Nc3ccc(F)cc3)c2cc1OCCCCC(=O)Nc1ccc(S(N)(=O)=O)cc1 | 18.6 µM | > 40 µM | > 40 µM | – | – | – | –
42 | COc1cc2ncnc(Nc3ccc(OC(F)(F)F)cc3)c2cc1OCCCCC(=O)Nc1ccc(S(N)(=O)=O)cc1 | 22.4 µM | 8.77 µM | > 40 µM | – | – | – | –
43 | NS(=O)(=O)c1ccc(NC(=S)Nc2ccc3ncnc(Nc4cccc(C(F)(F)F)c4)c3c2)cc1 | 21.7 µM | 7.59 µM | 10.1 µM | 135 nM | 51.2 nM | 578 nM | 526 nM
44 | Cc1ccc(Nc2ncnc3ccc(NC(=S)NCCc4ccc(S(N)(=O)=O)cc4)cc23)cc1 | 13.1 µM | 10.2 µM | 14.7 µM | – | – | – | –
45 | CCc1ccc(Nc2ncnc3ccc(NC(=S)NCCc4ccc(S(N)(=O)=O)cc4)cc23)cc1 | 39.6 µM | 9.36 µM | 16.6 µM | – | – | – | –
46 | C#Cc1cccc(Nc2ncnc3cc(OCCOC)c(OCCOC)cc23)c1 [ERLOTINIB] | 11.8 µM | 13.1 µM | 16.4 µM | – | – | – | –
47 | NS(=O)(=O)c1ccc(NC(=S)Nc2ccc3ncnc(Nc4cccc(Cl)c4F)c3c2)cc1 | 13.1 µM | 25.1 µM | > 40 µM | – | – | – | –
48 | COc1cc2ncnc(Nc3cccc(Br)c3)c2cc1OCCCCC(=O)Nc1ccc(S(N)(=O)=O)cc1 | 9.75 µM | 11.4 µM | 14.9 µM | – | – | – | –
49 | NS(=O)(=O)c1ccc(NC(=S)Nc2ccc3ncnc(Nc4cccc(F)c4)c3c2)cc1 | 30.1 µM | 9.66 µM | 25.9 µM | – | – | – | –
50 | NS(=O)(=O)c1ccc(CCNC(=S)Nc2ccc3ncnc(Nc4ccc(F)c(Br)c4)c3c2)cc1 | 21.1 µM | 9.43 µM | 5.4 µM | – | – | – | –
51 | COc1cc2ncnc(Nc3ccc(Cl)cc3)c2cc1OCCCCC(=O)Nc1ccc(S(N)(=O)=O)cc1 | 7.12 µM | 31.8 µM | > 40 µM | – | – | – | –
